Data reported in patent publication US20140309265A1, “MACROCYCLIC COMPOUNDS FOR INHIBITION OF INHIBITORS OF APOPTOSIS” (Ensemble Therapeutics, priority 2011, published 2014).
Like-named read-outs stand apart in the source and are kept apart here.

How the values were obtained:
[1] = target: T1, XIAP His-BIR2 (124-240/C202A/C213G) (Homo sapiens, UniProt P98170, C202A/C213G); test: XIAP-BIR2/SMAC Peptide AlphaScreen Assay; format: binding
T1 construct: additions of His-BIR2 (124-240/C202A/C213G), Biotinylated SMAC peptide
T1 sequence (P98170 124-240 C202A/C213G): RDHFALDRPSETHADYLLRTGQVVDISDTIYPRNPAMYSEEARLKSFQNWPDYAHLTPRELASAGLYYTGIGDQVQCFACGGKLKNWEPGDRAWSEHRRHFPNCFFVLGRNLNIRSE
Procedure: A. XIAP-BIR2/SMAC Peptide AlphaScreen Assay Assays were performed in white, flat-bottom, 384-well ProxiPlates (Perkin Elmer). […] The reaction was incubated at room temperature for 60 minutes. After 60 minutes, 2.5 μL of Alphascreen detection reagent (Perkin Elmer) was added to the reaction mixture and incubated at room temperature in the dark for 120 minutes. The Alphascreen signal generated by the reaction was detected on the Envision Plate Reader. […] Compounds were dissolved at 10 mM in dimethylsulfoxide (DMSO) and evaluated at eleven concentrations. IC50 values were derived by non-linear regression analysis.

[2] = target: N-His-Tb-BIR3(241-356, XIAP) (Homo sapiens, UniProt P98170); test: XIAP-BIR3 SMAC Peptide Fluorescence Polarization Assay (FPA); format: binding
Chain of N-His-Tb-BIR3(241-356, XIAP) (P98170 241-356): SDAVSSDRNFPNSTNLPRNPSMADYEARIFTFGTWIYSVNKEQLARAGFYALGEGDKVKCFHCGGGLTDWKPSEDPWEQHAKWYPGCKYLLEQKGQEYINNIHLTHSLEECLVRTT

[3] = XIAP BIR2, AlphaScreen, Table 2, read-out: BIR2 IC50
[4] = XIAP BIR2, Alphascreen, Table 4, read-out: BIR2 Alpha Screen IC50

IC50 ([2]; XIAP BIR3, FPA, Table 2, read-out: BIR3 IC50) [nM] | Compound | IC50 [1, 3] [nM] | IC50 [2] [nM] | IC50 [1, 4] [nM]
 | CN[C@@H](C)C(=O)N[C@H](C(=O)N1C[C@@H]2C[C@H]1C(=O)N[C@@H](Cc1ccc(-c3ccccc3)cc1)C(=O)N[C@H](C(=O)O)Cc1ccc(cc1)COc1cn(nn1)[C@H]1C[C@@H](C(=O)N[C@@H](Cc3ccc(-c4ccccc4)cc3)C(=O)N[C@H](C(=O)O)Cc3ccc(cc3)OCc3cn2nn3)N(C(=O)[C@@H](NC(=O)[C@H](C)NC)C(C)C)C1)C(C)C [Compound 114] | < 2000 | < 50 | 
 | CN[C@@H](C)C(=O)N[C@H](C(=O)N1C[C@@H]2C[C@H]1C(=O)N[C@@H](Cc1ccc(OCc3ccccc3)cc1)C(=O)N[C@H](C(=O)O)Cc1ccc(cc1)COc1cn(nn1)[C@H]1C[C@@H](C(=O)N[C@@H](Cc3ccc(OCc4ccccc4)cc3)C(=O)N[C@H](C(=O)O)Cc3ccc(cc3)OCc3cn2nn3)N(C(=O)[C@@H](NC(=O)[C@H](C)NC)C(C)C)C1)C(C)C [Compound 115] | 2000 to 12000 | < 50 | 
 | CC[C@H](NC(=O)[C@H](C)NC)C(=O)N1C[C@@H]2C[C@H]1C(=O)N[C@@H](Cc1ccccc1)C(=O)N[C@H](C(=O)O)Cc1ccc(cc1)OCc1cn(nn1)[C@H]1C[C@@H](C(=O)N[C@@H](Cc3ccccc3)C(=O)N[C@H](C(=O)O)Cc3ccc(cc3)OCc3cn2nn3)N(C(=O)[C@H](CC)NC(=O)[C@H](C)NC)C1 [Compound 117] | < 2000 | < 50 | 
 | CN[C@@H](C)C(=O)N[C@@H](C)C(=O)N1C[C@@H]2C[C@H]1C(=O)N[C@@H](Cc1ccccc1)C(=O)N[C@H](C(=O)O)Cc1ccc(cc1)OCc1cn(nn1)[C@H]1C[C@@H](C(=O)N[C@@H](Cc3ccccc3)C(=O)N[C@H](C(=O)O)Cc3ccc(cc3)OCc3cn2nn3)N(C(=O)[C@H](C)NC(=O)[C@H](C)NC)C1 [Compound 118] | > 12000 | 50 to 100 | 
 | CN[C@@H](C)C(=O)N[C@@H](CC(C)C)C(=O)N1C[C@@H]2C[C@H]1C(=O)N[C@@H](Cc1ccccc1)C(=O)N[C@H](C(=O)O)Cc1ccc(cc1)OCc1cn(nn1)[C@H]1C[C@@H](C(=O)N[C@@H](Cc3ccccc3)C(=O)N[C@H](C(=O)O)Cc3ccc(cc3)OCc3cn2nn3)N(C(=O)[C@H](CC(C)C)NC(=O)[C@H](C)NC)C1 [Compound 119] | < 2000 | < 50 | 
 | CN[C@@H](C)C(=O)N[C@H](C(=O)N1C[C@@H]2C[C@H]1C(=O)N[C@@H](Cc1ccccc1)C(=O)N[C@H](C(=O)O)Cc1ccc(cc1)OCc1cn(nn1)[C@H]1C[C@@H](C(=O)N[C@@H](Cc3ccccc3)C(=O)N[C@H](C(=O)O)Cc3ccc(cc3)OCc3cn2nn3)N(C(=O)[C@@H](NC(=O)[C@H](C)NC)C2CCCCC2)C1)C1CCCCC1 [Compound 120] | < 2000 | < 50 | 
> 100 | CN[C@@H](C)C(=O)NCC1(C(=O)N2C[C@@H]3C[C@H]2C(=O)N[C@@H](Cc2ccccc2)C(=O)N[C@H](C(=O)O)Cc2ccc(cc2)OCc2cn(nn2)[C@H]2C[C@@H](C(=O)N[C@@H](Cc4ccccc4)C(=O)N[C@H](C(=O)O)Cc4ccc(cc4)OCc4cn3nn4)N(C(=O)C3(CNC(=O)[C@H](C)NC)CC3)C2)CC1 [Compound 121] | > 12000 |  | 
 | CN[C@@H](C)C(=O)N[C@H](C(=O)N1C[C@@H]2C[C@H]1C(=O)N[C@@H](CC1CCCCC1)C(=O)N[C@H](C(=O)O)Cc1ccc(cc1)OCc1cn(nn1)[C@H]1C[C@@H](C(=O)N[C@@H](CC3CCCCC3)C(=O)N[C@H](C(=O)O)Cc3ccc(cc3)OCc3cn2nn3)N(C(=O)[C@@H](NC(=O)[C@H](C)NC)C(C)C)C1)C(C)C [Compound 122] | 2000 to 12000 | > 100 | 
 | CN[C@@H](C)C(=O)N[C@H](C(=O)N1C[C@@H]2C[C@H]1C(=O)N[C@@H](COCc1ccccc1)C(=O)N[C@H](C(=O)O)Cc1ccc(cc1)OCc1cn(nn1)[C@H]1C[C@@H](C(=O)N[C@@H](COCc3ccccc3)C(=O)N[C@H](C(=O)O)Cc3ccc(cc3)OCc3cn2nn3)N(C(=O)[C@@H](NC(=O)[C@H](C)NC)C(C)C)C1)C(C)C [Compound 123] | 2000 to 12000 | > 100 | 
 | CN[C@@H](C)C(=O)N[C@H](C(=O)N1C[C@@H]2C[C@H]1C(=O)N[C@@H](Cc1csc3ccccc13)C(=O)N[C@H](C(=O)O)Cc1ccc(cc1)OCc1cn(nn1)[C@H]1C[C@@H](C(=O)N[C@@H](Cc3csc4ccccc34)C(=O)N[C@H](C(=O)O)Cc3ccc(cc3)OCc3cn2nn3)N(C(=O)[C@@H](NC(=O)[C@H](C)NC)C(C)C)C1)C(C)C [Compound 124] | < 2000 | < 50 | 
 | CN[C@@H](C)C(=O)N[C@H](C(=O)N1C[C@@H]2C[C@H]1C(=O)N[C@@H](Cc1c[nH]c3ccccc13)C(=O)N[C@H](C(=O)O)Cc1ccc(cc1)OCc1cn(nn1)[C@H]1C[C@@H](C(=O)N[C@@H](Cc3c[nH]c4ccccc34)C(=O)N[C@H](C(=O)O)Cc3ccc(cc3)OCc3cn2nn3)N(C(=O)[C@@H](NC(=O)[C@H](C)NC)C(C)C)C1)C(C)C [Compound 125] | < 2000 | < 50 | 
 | C=CCOc1ccc(C[C@@H]2NC(=O)[C@@H]3C[C@@H](CN3C(=O)[C@@H](NC(=O)[C@H](C)NC)C(C)C)n3cc(nn3)COc3ccc(cc3)C[C@@H](C(=O)O)NC(=O)[C@H](Cc3ccc(OCC=C)cc3)NC(=O)[C@@H]3C[C@@H](CN3C(=O)[C@@H](NC(=O)[C@H](C)NC)C(C)C)n3cc(nn3)COc3ccc(cc3)C[C@@H](C(=O)O)NC2=O)cc1 [Compound 126] | 2000 to 12000 | 50 to 100 | 
 | CN[C@@H](C)C(=O)N[C@H](C(=O)N1C[C@@H]2C[C@H]1C(=O)N[C@@H](Cc1cccc(C(F)(F)F)c1)C(=O)N[C@H](C(=O)O)Cc1ccc(cc1)OCc1cn(nn1)[C@H]1C[C@@H](C(=O)N[C@@H](Cc3cccc(C(F)(F)F)c3)C(=O)N[C@H](C(=O)O)Cc3ccc(cc3)OCc3cn2nn3)N(C(=O)[C@@H](NC(=O)[C@H](C)NC)C(C)(C)C)C1)C(C)(C)C [Compound 129] | < 2000 | < 50 | 
 | CN[C@@H](C)C(=O)N[C@H](C(=O)N1C[C@@H]2C[C@H]1C(=O)N[C@@H](Cc1cccc(C(F)(F)F)c1)C(=O)N[C@H](C(=O)O)Cc1ccc(cc1)OCc1cn(nn1)[C@H]1C[C@@H](C(=O)N[C@@H](Cc3cccc(C(F)(F)F)c3)C(=O)N[C@H](C(=O)O)Cc3ccc(cc3)OCc3cn2nn3)N(C(=O)[C@@H](NC(=O)[C@H](C)NC)C2CCCCC2)C1)C1CCCCC1 [Compound 130] | 2000 to 12000 | < 50 | 
 | CN[C@@H](C)C(=O)N[C@H](C(=O)N1C[C@@H]2C[C@H]1C(=O)N[C@@H](Cc1ccc(OC)c(OC)c1)C(=O)N[C@H](C(=O)O)Cc1ccc(cc1)OCc1cn(nn1)[C@H]1C[C@@H](C(=O)N[C@@H](Cc3ccc(OC)c(OC)c3)C(=O)N[C@H](C(=O)O)Cc3ccc(cc3)OCc3cn2nn3)N(C(=O)[C@@H](NC(=O)[C@H](C)NC)C(C)(C)C)C1)C(C)(C)C [Compound 131] | 2000 to 12000 | > 100 | 
 | CN[C@@H](C)C(=O)N[C@H](C(=O)N1C[C@@H]2C[C@H]1C(=O)N[C@@H](Cc1ccc(OC)c(OC)c1)C(=O)N[C@H](C(=O)O)Cc1ccc(cc1)OCc1cn(nn1)[C@H]1C[C@@H](C(=O)N[C@@H](Cc3ccc(OC)c(OC)c3)C(=O)N[C@H](C(=O)O)Cc3ccc(cc3)OCc3cn2nn3)N(C(=O)[C@@H](NC(=O)[C@H](C)NC)C2CCCCC2)C1)C1CCCCC1 [Compound 132] | > 12000 | > 100 | 
 | CN[C@@H](C)C(=O)N[C@H](C(=O)N1C[C@@H]2C[C@H]1C(=O)N[C@@H](Cc1ccccc1)C(=O)N(C)[C@H](C(=O)O)Cc1ccc(cc1)OCc1cn(nn1)[C@H]1C[C@@H](C(=O)N[C@@H](Cc3ccccc3)C(=O)N(C)[C@H](C(=O)O)Cc3ccc(cc3)OCc3cn2nn3)N(C(=O)[C@@H](NC(=O)[C@H](C)NC)C(C)C)C1)C(C)C [Compound 133] | < 2000 | < 50 | 
 | CN[C@@H](C)C(=O)N[C@H](C(=O)N1C[C@@H]2C[C@H]1C(=O)N[C@@H](Cc1ccc3ccccc3c1)C(=O)N(C)[C@H](C(=O)O)Cc1ccc(cc1)OCc1cn(nn1)[C@H]1C[C@@H](C(=O)N[C@@H](Cc3ccc4ccccc4c3)C(=O)N(C)[C@H](C(=O)O)Cc3ccc(cc3)OCc3cn2nn3)N(C(=O)[C@@H](NC(=O)[C@H](C)NC)C(C)C)C1)C(C)C [Compound 134] | < 2000 | 50 to 100 | 
 | CN[C@@H](C)C(=O)N[C@H](C(=O)N1CC2C[C@H]1C(=O)N[C@@H](Cc1ccc3ccccc3c1)C(=O)N[C@H](C(=O)O)Cc1cn(nn1)[C@H]1C[C@@H](C(=O)N[C@@H](Cc3ccc4ccccc4c3)C(=O)N[C@H](C(=O)O)Cc3cn2nn3)N(C(=O)[C@@H](NC(=O)[C@H](C)NC)C(C)C)C1)C(C)C [Compound 140] | < 2000 | < 50 | 
 | CN[C@@H](C)C(=O)N[C@H](C(=O)N1C[C@@H]2C[C@H]1C(=O)N[C@@H](Cc1ccccc1)C(=O)N[C@H](C(=O)O)Cc1ccc(cc1)OCc1cn(nn1)[C@H]1C[C@@H](C(=O)N[C@@H](Cc3ccc4ccccc4c3)C(=O)N[C@H](C(=O)O)Cc3ccc(cc3)OCc3cn2nn3)N(C(=O)[C@@H](NC(=O)[C@H](C)NC)C(C)(C)C)C1)C(C)(C)C [Compound 149] |  | < 50 | < 2000
 | CN[C@@H](C)C(=O)N[C@H](C(=O)N1C[C@@H]2C[C@H]1C(=O)N[C@@H](Cc1ccccc1)C(=O)N[C@H](C(=O)O)Cc1ccc(cc1)OCc1cn(nn1)[C@H]1C[C@@H](C(=O)N[C@@H](Cc3ccc4ccccc4c3)C(=O)N[C@H](C(=O)OC)Cc3ccc(cc3)OCc3cn2nn3)N(C(=O)[C@@H](NC(=O)[C@H](C)NC)C(C)(C)C)C1)C(C)(C)C [Compound 150] |  | 50 to 100 | < 2000
